Results from ChEMBL document CHEMBL1201862, “PubChem BioAssay data set” (2004).
Calls of active or inactive are those of the source.

Legend:
[1] = inhibitors of SNCA 5'UTR-driven reporter translation, confirmation, H4 neuroglioma cells, luminescence (AID 1988); assay type: functional, cell-based
[2] = inhibitors of firefly luciferase expression or activity, dose response, H4 neuroglioma cells, luminescence (AID 1990); assay type: functional, cell-based
[3] = Luminescence Cell-Based Dose Response HTS to Identify Inhibitors of 5'UTR Stem-Loop Driven Prion Protein mRNA Translation in H4 Neuroglioblastoma Cells. [Related pubchem assays: 1827 (Project Summary), 1813 (Primary HTS)]; assay type: functional
[4] = HEp-2 cell cytotoxicity, dose response, cytotoxicity control for RSV inhibitor project, HTS (AID 2410); assay type: functional; settings: human respiratory syncytial virus
[5] = target: T1, Corticotropin-releasing factor receptor 2/Corticotropin-releasing factor-binding protein (Homo sapiens, UniProt P24387+Q13324); test: activators of CRF receptor 2 with binding protein – uHTS hits, confirmation (AID 602473); assay type: functional; settings: read-out: EC50_Mean
T1 sequence (Q13324 whole entry): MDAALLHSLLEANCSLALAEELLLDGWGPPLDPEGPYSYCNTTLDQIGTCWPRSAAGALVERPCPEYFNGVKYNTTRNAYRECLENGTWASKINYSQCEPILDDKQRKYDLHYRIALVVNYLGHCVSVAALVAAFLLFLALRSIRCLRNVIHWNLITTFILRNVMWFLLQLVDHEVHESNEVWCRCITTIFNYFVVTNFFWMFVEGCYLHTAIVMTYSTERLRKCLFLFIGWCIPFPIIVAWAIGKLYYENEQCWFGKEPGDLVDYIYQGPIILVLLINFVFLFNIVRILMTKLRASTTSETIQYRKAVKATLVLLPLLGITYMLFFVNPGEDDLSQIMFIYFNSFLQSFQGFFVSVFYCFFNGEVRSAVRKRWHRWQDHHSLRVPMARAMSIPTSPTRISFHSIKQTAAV
T1 sequence (P24387 whole entry): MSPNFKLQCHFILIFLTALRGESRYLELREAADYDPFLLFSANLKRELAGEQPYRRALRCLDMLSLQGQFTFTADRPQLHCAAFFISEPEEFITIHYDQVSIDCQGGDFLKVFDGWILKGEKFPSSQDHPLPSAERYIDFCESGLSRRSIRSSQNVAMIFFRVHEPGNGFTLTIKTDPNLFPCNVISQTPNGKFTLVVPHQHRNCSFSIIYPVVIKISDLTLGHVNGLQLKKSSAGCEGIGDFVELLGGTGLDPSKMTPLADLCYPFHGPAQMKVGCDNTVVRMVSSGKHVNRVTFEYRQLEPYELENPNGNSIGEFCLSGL

[6] = target: T1, Corticotropin-releasing factor receptor 2/Corticotropin-releasing factor-binding protein; test: Dose Response confirmation of uHTS hits for small molecule antagonists of the CRF-binding protein and CRF-R2 receptor complex.; assay type: functional; settings: read-out: IC50_Mean
Cytochrome P450 3A4 = Cytochrome P450 3A4 (Homo sapiens, UniProt P08684);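 further: CYP3A4 tested as one member of a cytochrome P450 panel screen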
Cytochrome P450 2C19 = Cytochrome P450 2C19 (Homo sapiens, UniProt P33261); test: Cytochrome panel assay with activity outcomes. Panel member name: p450-cyp2c19 Compounds with AC50 equal or less than 10 uM are considered active; assay type: functional; settings: read-out: AC50
H9c2 = test: cells; assay type: functional, cell-based; settings: Rattus norvegicus, H9c2, Myocardium
[7] = growth suppression of PTEN-null colon cells, dose response, cell-based, HCT116 PTEN knockout (AID 1047); assay type: functional;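 further: HCT116 colon tumor cells with PTEN knocked out; cells exposed to compound for 60 hours before readout; potency for loss of cell viability measured by luminescence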
cells [8] = assay type: functional, cell-based
cells [9] = assay type: functional, cell-based; remark: listed apart in the source
INS1 = test: beta cell apoptosis inhibitors, cytokine rescue, dose response, luminescence, retest (AID 449756); assay type: functional, cell-based; settings: Rattus norvegicus;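 further: cell death triggered by IL-1 beta plus TNF-alpha plus IFN-gamma mixture; protective hits raise ATP signal compared with cytokine alone wells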
[10] = target: T2, Heat shock factor protein 1 (Mus musculus, UniProt P38532); test: inhibition of MG132-induced HSE-luciferase signal, confirmation, cell-based, NIH3T3, luminescence, dose retest (AID 2382); assay type: functional;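 further: NIH3T3 fibroblasts with HSF1-driven luciferase reporter stressed by proteasome inhibitor MG132; luminescence from HSF1-driven luciferase expression after 8 hours of MG132 stress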
T2 sequence (P38532 whole entry): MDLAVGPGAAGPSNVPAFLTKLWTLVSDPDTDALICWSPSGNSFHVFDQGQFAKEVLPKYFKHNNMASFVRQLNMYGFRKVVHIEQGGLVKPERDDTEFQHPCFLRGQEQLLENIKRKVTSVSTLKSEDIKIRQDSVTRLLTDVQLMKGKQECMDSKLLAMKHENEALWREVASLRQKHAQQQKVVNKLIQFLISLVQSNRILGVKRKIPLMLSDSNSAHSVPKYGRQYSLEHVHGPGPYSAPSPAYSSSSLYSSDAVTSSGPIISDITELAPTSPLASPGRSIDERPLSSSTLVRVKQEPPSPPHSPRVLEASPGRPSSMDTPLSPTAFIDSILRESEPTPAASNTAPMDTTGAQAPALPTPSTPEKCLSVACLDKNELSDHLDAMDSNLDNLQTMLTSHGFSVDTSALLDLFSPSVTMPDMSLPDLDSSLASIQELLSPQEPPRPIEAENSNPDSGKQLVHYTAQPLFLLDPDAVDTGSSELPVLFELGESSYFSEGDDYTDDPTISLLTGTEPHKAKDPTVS

[11] = NIH-3T3 fibroblast cytotoxicity, dose response, cytotoxicity control, cell-based, fluorescence, Alamar Blue, secondary assay (AID 2327); assay type: functional;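 further: NIH-3T3 mouse fibroblasts cultured with fluconazole at 8 µg/mL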
[12] = Luminescence Cell-Based Dose Response HTS to Identify Activators of Luciferase Translation or Activity in H4 […] Cells. [Related pubchem assays: 1829 (Project Summary), 1814 (Primary HTS)]; assay type: functional
H4 = test: Luminescence Cell-Based Dose Response HTS to Identify Activators of 5'UTR Stem-Loop Driven Prion Protein mRNA Translation in H4 Neuroglioblastoma Cells. [Related pubchem assays: 1829 (Project Summary), 1814 (Primary HTS)]; assay type: functional; settings: Homo sapiens
[13] = Luminescence Cell-Based Dose Confirmation HTS to Identify Activators of 5'UTR Stem-Loop Driven Alpha-Synuclein mRNA Translation in H4 Neuroglioblastoma Cells. [Related pubchem assays: 1829 (Project Summary), 1814 (Primary HTS)]; assay type: functional

Cytochrome P450 3A4, sequence (P08684 whole entry): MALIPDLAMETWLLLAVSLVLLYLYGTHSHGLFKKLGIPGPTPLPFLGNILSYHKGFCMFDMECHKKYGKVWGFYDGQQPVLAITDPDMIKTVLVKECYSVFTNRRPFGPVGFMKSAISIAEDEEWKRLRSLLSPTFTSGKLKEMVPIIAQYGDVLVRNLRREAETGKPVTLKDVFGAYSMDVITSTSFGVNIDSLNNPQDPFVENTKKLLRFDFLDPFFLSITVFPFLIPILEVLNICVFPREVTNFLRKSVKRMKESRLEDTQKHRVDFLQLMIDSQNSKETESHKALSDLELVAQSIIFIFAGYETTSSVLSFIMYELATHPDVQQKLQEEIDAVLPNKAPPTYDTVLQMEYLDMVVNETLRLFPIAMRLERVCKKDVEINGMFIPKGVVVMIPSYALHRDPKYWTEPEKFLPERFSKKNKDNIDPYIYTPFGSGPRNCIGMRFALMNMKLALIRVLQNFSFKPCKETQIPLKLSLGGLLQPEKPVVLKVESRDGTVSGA
Cytochrome P450 2C19, sequence (P33261 whole entry): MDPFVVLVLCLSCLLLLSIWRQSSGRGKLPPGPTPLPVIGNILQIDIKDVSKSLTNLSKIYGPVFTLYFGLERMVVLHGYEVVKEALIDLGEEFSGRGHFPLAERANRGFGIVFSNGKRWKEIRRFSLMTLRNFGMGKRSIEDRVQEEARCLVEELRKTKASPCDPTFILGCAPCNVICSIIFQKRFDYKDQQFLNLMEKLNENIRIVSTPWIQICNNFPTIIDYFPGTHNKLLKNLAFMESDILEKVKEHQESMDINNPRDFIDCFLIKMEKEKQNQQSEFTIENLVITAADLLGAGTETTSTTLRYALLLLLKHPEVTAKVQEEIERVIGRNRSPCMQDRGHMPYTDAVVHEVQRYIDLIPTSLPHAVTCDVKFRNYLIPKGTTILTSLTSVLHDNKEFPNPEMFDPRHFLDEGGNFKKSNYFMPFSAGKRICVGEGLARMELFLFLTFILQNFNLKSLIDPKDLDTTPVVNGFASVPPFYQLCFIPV

## CC(C)OC(=O)/C(C#N)=C/c1cn(Cc2ccccc2)c2ccccc12
[1]
  EC50: 7.08 µM (active)
[2]
  EC50: 11.5 µM (active)
[3]
  EC50: 13.4 µM (active)

## CCc1nn(CCCC(=O)N2CCN(c3cccc(C)c3C)CC2)c(=O)c2cc3occc3n12
[4]
  CC50: 17 µM (active)

## O=C1NC(=O)N(CCNc2ncc(C(F)(F)F)cc2Cl)C(=O)C1/C=N/OCc1c(F)cccc1Cl (configuration not stated)
[5]
  EC50: > 53 µM (inactive)
[6]
  IC50: > 47.1 µM (inactive)
Cytochrome P450 3A4
  AC50: 3.16 µM (inconclusive)
Cytochrome P450 2C19
  AC50: 8.91 µM (inconclusive)

## CCOC(=O)CSc1nc(O)c2ccccc2n1
H9c2
  IC50: > 79 µM (inactive)

## CN(C)c1nn(C(=O)Nc2cccc(C(F)(F)F)c2)cc1-c1ccccc1
[7]
  EC50: 42.1 µM (active)

## O=C(N/N=C/c1ccccc1O)/C(=C/c1ccccc1)CCO
Cells [8]
  EC50: 50.4 µM (active)
Cells [9]
  EC50: > 350 µM (not active)
INS1
  AC50: 2.57 µM (active)

## O=C(CCN1CCCCC1)c1ccc2c(c1)OCO2
[5]
  EC50: > 53 µM (inactive)
[6]
  IC50: > 47.1 µM (inactive)

## O=C(CCCc1ccccc1)Nc1ccccn1
Cells [8]
  EC50: > 350 µM (not active)
Cells [9]
  EC50: > 350 µM (not active)

## COc1cc(CNc2ccc(N3CCCC3)cc2)ccc1OCc1ccccc1
[4]
  CC50: 13 µM (active)

## CSc1ccccc1NC(=O)c1ccc(N2CC3CC(C2)c2cccc(=O)n2C3)c(NC(=O)c2cccnc2)c1 (configuration not stated)
[1]
  EC50: > 120 µM (not active)
[2]
  EC50: > 120 µM (not active)
[3]
  EC50: > 120 µM (not active)

## Nc1ccnn1-c1ccccc1
Cells [8]
  EC50: > 350 µM (not active)
Cells [9]
  EC50: > 350 µM (not active)

## Cc1ccc(N(C(=O)Cn2nnc(-c3ccccc3F)n2)C(C(=O)NC2CCCC2)c2ccncc2)cc1 (configuration not stated)
[5]
  EC50: > 53 µM (inactive)
[6]
  IC50: > 47.1 µM (inactive)

## CN(Cc1cccc(Cl)c1)C(=O)C1CCC(=O)N(C2CC2)C1 (configuration not stated)
[5]
  EC50: > 53 µM (inactive)
[6]
  IC50: > 47.1 µM (inactive)

## COc1ccc2sc(NC(=O)NC(=O)c3c(Cl)cccc3Cl)nc2c1
[4]
  CC50: 17.3 µM (active)

## COc1cc(/C=N/NC(=O)NC23CC4CC(CC(C4)C2)C3)ccc1OCC(N)=O
H9c2
  IC50: > 79 µM (inactive)

## Fc1ccc(-n2cc(-c3ccccc3)c3c(N4CCOCC4)ncnc32)cc1
[10]
  EC50: 2.3 µM (active)
H9c2
  IC50: > 79 µM (inactive)

## COc1ccc(CN2C(=O)NC(=O)/C(=C\NNC(=O)c3ccccc3)C2=O)cc1
[11]
  EC50: 56 µM (active)

## O=S(=O)(NC(=S)NC1CCCCC1)c1ccc(Br)cc1
[5]
  EC50: > 53 µM (inactive)
[6]
  IC50: > 47.1 µM (inactive)

## c1ccc2c(c1)CSc1ccccc1N2
[1]
  EC50: > 120 µM (not active)
[2]
  EC50: > 120 µM (not active)
[3]
  EC50: > 120 µM (not active)

## CCN(CC(=O)Nc1c(F)cccc1F)C(=O)c1ccc(S(=O)(=O)N2CCC(C)CC2)cc1
[5]
  EC50: > 53 µM (inactive)
[6]
  IC50: > 47.1 µM (inactive)

## COc1cc(-c2cc(C(=O)N3CCN(c4ccccn4)CC3)c3ccccc3n2)cc(OC)c1OC
H9c2
  IC50: > 79 µM (inactive)

## O=C(O)c1ccccc1OCCOc1ccccc1C(=O)O
Cells [8]
  EC50: > 350 µM (not active)
Cells [9]
  EC50: > 350 µM (not active)

## NC(=O)c1nsc(C(=O)N(c2ccccc2)C(C(=O)NCc2ccc(F)cc2)c2ccc(O)cc2)c1N (configuration not stated)
H9c2
  IC50: > 79 µM (inactive)

## Cn1c(SCC(=O)Nc2ccccc2)nnc1-c1ccc(NC(=O)CCc2ccccc2)cc1
Cells [8]
  EC50: > 350 µM (not active)
Cells [9]
  EC50: > 350 µM (not active)

## O=C(Nc1ccc(Cl)cc1)NN1CC(=O)N(c2cccc(C(F)(F)F)c2)CC1=O
Cells [8]
  EC50: > 350 µM (not active)
Cells [9]
  EC50: > 350 µM (not active)

## NC(=O)NC1CCCc2c1[nH]c1ccc(Cl)cc21 (configuration not stated)
[4]
  CC50: 18 µM (active)

## O=C(NN=Cc1cccc([N+](=O)[O-])c1)c1cc(-c2cccnc2)nc2ccccc12
H9c2
  IC50: > 79 µM (inactive)

## Cc1cnc(NC(=O)CSc2nc(O)c3ccccc3n2)s1
H9c2
  IC50: > 79 µM (inactive)

## O=C(Nc1ccc2nc(N3CCOCC3)sc2c1)c1cc2ccccc2o1
H9c2
  IC50: > 79 µM (inactive)

## CCn1c(O)c(/C=N/N=C2CCCCC2)c2cc(C3=NNC(=O)CC3)ccc21
H9c2
  IC50: > 79 µM (inactive)

## O=C(Nc1ccc(Cl)cn1)c1cccc(S(=O)(=O)N2CCCC2)c1
[5]
  EC50: > 53 µM (inactive)
[6]
  IC50: > 47.1 µM (inactive)

## Clc1ccc(-c2nnc(NCc3ccccc3)c3ccccc23)cc1
[5]
  EC50: > 53 µM (inactive)
[6]
  IC50: > 47.1 µM (inactive)

## COC(=O)CNC(=O)CSc1nnc2cc(C)c3ccccc3n12
Cells [8]
  EC50: > 350 µM (not active)
Cells [9]
  EC50: > 350 µM (not active)

## Cc1ccc(CNC(=O)CCc2nc(O)c3ccccc3n2)cc1
H9c2
  IC50: 12.5 µM (active)

## CC1CC(C)CN(S(=O)(=O)c2ccc3c(c2)oc(=O)n3CC(=O)NCCCOC(C)C)C1 (configuration not stated)
Cells [8]
  EC50: > 350 µM (not active)
Cells [9]
  EC50: > 350 µM (not active)

## CC(C)COc1ccc(CN=C(S)Nc2ccccc2)cc1Cl
[5]
  EC50: > 53 µM (inactive)
[6]
  IC50: > 47.1 µM (inactive)

## Cc1ccc(C(=O)NCc2cccnc2)o1
[5]
  EC50: > 53 µM (inactive)
[6]
  IC50: > 47.1 µM (inactive)

## O=C(N[C@@H](Cc1ccccc1)C(=O)OCc1ccccc1)c1[nH]cnc1C(=O)N1CCc2ccccc2C1
[4]
  CC50: 26.1 µM (active)

## COc1ccc(C(=O)Nc2ccc3nc4n(c(=O)c3c2)CCCCC4)cc1OC
[5]
  EC50: > 53 µM (inactive)
[6]
  IC50: > 47.1 µM (inactive)

## COc1ccc2nc(O)c(CN(c3ccccc3OC)S(=O)(=O)c3ccccc3)cc2c1
[12]
  EC50: 14.3 µM (active)
H4
  EC50: > 120 µM (not active)
[13]
  EC50: > 120 µM (not active)
H9c2
  IC50: 13.3 µM (active)
